From ChEMBL document CHEMBL5143613, “Discovery of 6,7-dihydro-5H-pyrrolo[3,4-d] pyrimidine derivatives as a new class of ATR inhibitors” (Bioorg Med Chem Lett, 2022)
One block for each molecule: values may come before it.

Legend:
[1] = Inhibition of recombinant full-length human ATR M211T mutant using GST-cMyc-p53 as substrate incubated for 40 mins by HTRF assay
A2780 [2] = assay: Anti-migration activity against human A2780 cells assessed as inhibition of cell migration at 0.1 to 1 uM by wound healing assay; type: functional, cell-based; conditions: dose 0.1-1 µM, time 24-48 hrs, TDE = time-dependent effect
FKBP12A/mTOR = FKBP12A/mTOR (Homo sapiens, UniProt P42345+P62942); assay: Inhibition of human full length recombinant mTOR/FKBP12 in presence of [gamma-33P]ATP incubated for 40 mins by radiometric scintillation counting analysis; type: protein-complex assay
Chain of FKBP12A/mTOR (P62942 2-108 limits assumed, other chains not shown): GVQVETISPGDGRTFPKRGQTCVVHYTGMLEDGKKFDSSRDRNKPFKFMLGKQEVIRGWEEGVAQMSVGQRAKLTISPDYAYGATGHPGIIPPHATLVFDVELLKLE

NCI-H23 = assay: Anti-tumor activity against human NCI-H23 cells assessed as inhibition of cell viability incubated for 72 hrs by MTT assay; type: functional, cell-based; conditions: NCI-H23, 72 h
CWR22R = assay: Anti-tumor activity against human 22Rv1 cells assessed as inhibition of cell viability incubated for 72 hrs by MTT assay; type: functional, cell-based; conditions: 22Rv1, 72 h
A2780 [3] = assay: Inhibition of colony formation in human A2780 cells by crystal violet staining based analysis; type: functional, cell-based; conditions: dose 0.03-3 µM, DDE = dose-dependent effect
MDA-MB-468 = assay: Anti-tumor activity against human MDA-MB-468 cells assessed as inhibition of cell viability incubated for 72 hrs by MTT assay; type: functional, cell-based; conditions: MDA-MB-468, 72 h
[4] = target: Serine/threonine-protein kinase ATR (Homo sapiens) (UniProt Q13535); assay: Inhibition of ATR in HU-treated human A2780 cells assessed as inhibition of Chk1 phosphorylation at Ser345 residue by Western blot assay; type: cell-based; conditions: dose 0.03-10 µM, DDE = dose-dependent effect
Chain of Serine/threonine-protein kinase ATR (Homo sapiens) (Q13535 whole entry, looked up, the tested form may be a part): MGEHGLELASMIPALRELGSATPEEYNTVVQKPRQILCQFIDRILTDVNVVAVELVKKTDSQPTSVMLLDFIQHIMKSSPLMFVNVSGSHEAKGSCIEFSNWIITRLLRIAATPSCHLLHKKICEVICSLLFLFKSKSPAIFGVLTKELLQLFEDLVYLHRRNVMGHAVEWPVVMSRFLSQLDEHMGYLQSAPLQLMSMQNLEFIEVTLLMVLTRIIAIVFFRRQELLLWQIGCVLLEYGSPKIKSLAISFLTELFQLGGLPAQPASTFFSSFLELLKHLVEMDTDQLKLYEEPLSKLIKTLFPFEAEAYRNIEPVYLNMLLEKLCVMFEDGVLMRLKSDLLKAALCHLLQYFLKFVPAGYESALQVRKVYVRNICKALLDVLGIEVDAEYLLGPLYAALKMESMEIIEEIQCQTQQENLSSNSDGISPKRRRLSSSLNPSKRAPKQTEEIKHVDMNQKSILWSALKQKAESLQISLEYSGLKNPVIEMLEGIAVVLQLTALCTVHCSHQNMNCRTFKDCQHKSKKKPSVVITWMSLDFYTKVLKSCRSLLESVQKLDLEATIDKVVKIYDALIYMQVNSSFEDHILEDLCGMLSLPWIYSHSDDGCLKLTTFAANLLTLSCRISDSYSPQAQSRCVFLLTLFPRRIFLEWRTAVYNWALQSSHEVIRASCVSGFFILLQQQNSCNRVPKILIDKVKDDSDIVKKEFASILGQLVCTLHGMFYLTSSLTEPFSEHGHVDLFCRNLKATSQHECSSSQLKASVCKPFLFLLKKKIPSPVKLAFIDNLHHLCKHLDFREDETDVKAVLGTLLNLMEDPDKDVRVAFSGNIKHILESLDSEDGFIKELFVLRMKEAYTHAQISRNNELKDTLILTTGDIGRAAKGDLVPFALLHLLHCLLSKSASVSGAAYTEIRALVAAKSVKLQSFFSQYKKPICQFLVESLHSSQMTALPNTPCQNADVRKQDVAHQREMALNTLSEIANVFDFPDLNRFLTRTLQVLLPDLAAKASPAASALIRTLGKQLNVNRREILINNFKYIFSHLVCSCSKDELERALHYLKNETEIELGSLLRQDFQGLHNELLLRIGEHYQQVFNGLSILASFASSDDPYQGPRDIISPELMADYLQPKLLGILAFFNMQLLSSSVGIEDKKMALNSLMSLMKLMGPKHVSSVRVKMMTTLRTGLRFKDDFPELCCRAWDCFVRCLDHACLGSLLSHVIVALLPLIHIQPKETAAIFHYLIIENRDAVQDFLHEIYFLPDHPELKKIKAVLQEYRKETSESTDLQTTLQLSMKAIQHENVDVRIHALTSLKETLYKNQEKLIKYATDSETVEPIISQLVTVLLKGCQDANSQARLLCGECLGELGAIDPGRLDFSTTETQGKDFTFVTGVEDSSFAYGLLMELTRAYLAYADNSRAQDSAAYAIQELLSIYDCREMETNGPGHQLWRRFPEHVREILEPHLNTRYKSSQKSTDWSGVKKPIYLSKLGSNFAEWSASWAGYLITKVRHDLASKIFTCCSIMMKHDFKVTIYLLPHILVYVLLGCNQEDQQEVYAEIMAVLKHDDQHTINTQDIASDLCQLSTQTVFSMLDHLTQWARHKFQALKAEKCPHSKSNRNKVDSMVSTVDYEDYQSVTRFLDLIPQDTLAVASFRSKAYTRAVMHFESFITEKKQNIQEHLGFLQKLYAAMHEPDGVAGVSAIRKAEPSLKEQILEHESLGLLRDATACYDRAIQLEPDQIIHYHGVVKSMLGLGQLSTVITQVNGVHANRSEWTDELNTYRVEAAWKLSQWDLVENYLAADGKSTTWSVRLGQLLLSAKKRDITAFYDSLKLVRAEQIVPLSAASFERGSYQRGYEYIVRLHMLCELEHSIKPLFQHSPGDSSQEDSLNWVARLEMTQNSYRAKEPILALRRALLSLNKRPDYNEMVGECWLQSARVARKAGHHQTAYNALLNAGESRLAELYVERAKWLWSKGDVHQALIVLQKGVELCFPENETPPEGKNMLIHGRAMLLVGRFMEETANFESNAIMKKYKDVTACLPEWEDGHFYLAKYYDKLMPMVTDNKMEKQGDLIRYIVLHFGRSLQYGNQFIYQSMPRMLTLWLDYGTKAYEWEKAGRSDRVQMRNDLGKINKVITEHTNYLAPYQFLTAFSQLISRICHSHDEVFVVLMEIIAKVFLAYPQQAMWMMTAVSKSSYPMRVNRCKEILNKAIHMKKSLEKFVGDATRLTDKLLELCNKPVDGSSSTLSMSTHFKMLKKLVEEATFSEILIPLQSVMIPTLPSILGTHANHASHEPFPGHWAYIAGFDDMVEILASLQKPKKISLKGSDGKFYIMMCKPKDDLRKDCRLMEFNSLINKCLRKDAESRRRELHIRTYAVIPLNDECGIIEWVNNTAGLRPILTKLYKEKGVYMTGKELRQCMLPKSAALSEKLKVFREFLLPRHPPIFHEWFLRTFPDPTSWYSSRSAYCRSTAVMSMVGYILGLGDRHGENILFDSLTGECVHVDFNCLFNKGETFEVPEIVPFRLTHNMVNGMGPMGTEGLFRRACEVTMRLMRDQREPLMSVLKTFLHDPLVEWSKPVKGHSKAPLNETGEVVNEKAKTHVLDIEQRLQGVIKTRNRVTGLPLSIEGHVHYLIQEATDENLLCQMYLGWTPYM

[5] = target: Phosphatidylinositol 4-phosphate 3-kinase C2 domain-containing subunit alpha (Homo sapiens, UniProt O00443); assay: Inhibition of human PI3K-C2alpha (299 to ens residues) using phosphatidylinositol-4, 5-bisphosphate as substrate incubated for 40 mins by HTRF assay
A2780 [6] = assay: Anti-migration activity against human A2780 cells assessed as inhibition of cell migration incubated for 24 to 48 hrs by wound healing assay; type: functional, cell-based; conditions: dose 0.1-1 µM, time 24-48 hrs, DDE = dose-dependent effect
Granta-519 = assay: Anti-tumor activity against human Granta-519 cells assessed as inhibition of cell viability incubated for 72 hrs by MTT assay; type: functional, cell-based; conditions: Granta-519, 72 h
[7] = target: Serine/threonine-protein kinase ATR (Homo sapiens) (UniProt Q13535); assay: Inhibition of ATR in human A2780 cells assessed as induction of DNA damage incubated for 3 days by DAPI staining based immunofluorescence analysis; type: cell-based; conditions: dose 1-10 µM, time 3.0 day, DDE = dose-dependent effect
A2780 [8] = assay: Anti-tumor activity against human A2780 cells assessed as inhibition of cell viability incubated for 72 hrs by MTT assay; type: functional, cell-based; conditions: A2780, 72 h
[9] = target: Serine/threonine-protein kinase mTOR (Homo sapiens, UniProt P42345); assay: Inhibition of human full length recombinant mTOR in presence of [gamma-33P]ATP incubated for 40 mins by radiometric scintillation counting analysis
[10] = target: Serine/threonine-protein kinase ATR (Homo sapiens) (UniProt Q13535); assay: Inhibition of ATR in HU-treated human A2780 cells assessed as inhibition of ATR phosphorylation by Western blot assay; type: cell-based; conditions: dose 0.03-10 µM, DDE = dose-dependent effect
MDA-MB-436 = assay: Anti-tumor activity against human MDA-MB-436 cells assessed as inhibition of cell viability incubated for 72 hrs by MTT assay; type: functional, cell-based; conditions: MDA-MB-436, 72 h
SW-620 = assay: Anti-tumor activity against human SW-620 cells assessed as inhibition of cell viability incubated for 72 hrs by MTT assay; type: functional, cell-based; conditions: SW-620, 72 h
LoVo = assay: Anti-tumor activity against human LoVo cells assessed as inhibition of cell viability incubated for 72 hrs by MTT assay; type: functional, cell-based
[11] = target: Serine/threonine-protein kinase B-raf (Homo sapiens, UniProt P15056); assay: Inhibition of human recombinant B-Raf (416 to end residues) using myelin basic protein as substrate in presence of [gamma-33P]ATP incubated for 40 mins by radiometric scintillation counting analysis
Chain of Serine/threonine-protein kinase B-raf (P15056 whole entry): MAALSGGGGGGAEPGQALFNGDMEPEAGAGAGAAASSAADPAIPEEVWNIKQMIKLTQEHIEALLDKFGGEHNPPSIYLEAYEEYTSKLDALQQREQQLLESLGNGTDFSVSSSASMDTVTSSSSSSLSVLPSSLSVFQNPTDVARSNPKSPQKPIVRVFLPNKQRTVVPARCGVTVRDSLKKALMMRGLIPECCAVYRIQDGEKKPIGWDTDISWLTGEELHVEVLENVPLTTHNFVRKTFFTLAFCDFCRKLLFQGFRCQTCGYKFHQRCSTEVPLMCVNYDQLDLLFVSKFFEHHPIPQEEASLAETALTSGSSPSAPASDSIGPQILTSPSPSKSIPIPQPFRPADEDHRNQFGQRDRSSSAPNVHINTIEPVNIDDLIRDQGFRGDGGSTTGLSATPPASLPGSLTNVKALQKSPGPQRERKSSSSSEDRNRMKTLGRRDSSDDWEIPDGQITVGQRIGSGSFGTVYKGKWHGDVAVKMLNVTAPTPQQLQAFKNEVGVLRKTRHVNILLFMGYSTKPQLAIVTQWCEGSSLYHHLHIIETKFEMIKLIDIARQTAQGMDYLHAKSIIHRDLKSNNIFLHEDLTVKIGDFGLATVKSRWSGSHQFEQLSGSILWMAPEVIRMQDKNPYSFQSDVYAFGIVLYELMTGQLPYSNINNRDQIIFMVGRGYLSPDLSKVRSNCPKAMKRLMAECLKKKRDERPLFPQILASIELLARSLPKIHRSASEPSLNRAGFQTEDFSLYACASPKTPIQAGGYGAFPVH

[12] = target: PI3-kinase p110-delta/p85-alpha (Homo sapiens, UniProt O00329); assay: Inhibition of recombinant human full length PI3K p110delta/p85a using phosphatidylinositol-4, 5-bisphosphate as substrate incubated for 40 mins in presence of [gamma33P]ATP by radiometric scintillation counting analysis; type: protein-complex assay

SMILES: C[C@@H]1COCCN1c1nc(-c2c[nH]c3ccccc23)nc2c1CN(C(=O)C1CCNCC1)C2
- IC50 [1]: 601 nM

SMILES: CCC(C)C(=O)N1Cc2nc(-c3c[nH]c4ccccc34)nc(N3CCOC[C@H]3C)c2C1 (some centres undefined)
- IC50 [1]: 26 nM

SMILES: C[C@@H]1COCCN1c1nc(-c2c[nH]c3ccccc23)nc2c1CN(C(=O)C(C)(C)C(F)(F)F)C2
- IC50 [1]: 38 nM

SMILES: O=S(=O)(C1CC1)N1Cc2nc(-c3c[nH]c4ccccc34)nc(N3CCOCC3)c2C1
- IC50 [1]: 891 nM

SMILES: O=S(=O)(C1CC1)N1Cc2nc(-c3c[nH]c4ccccc34)nc(NC3COC3)c2C1
- IC50 [1]: 10000 nM

SMILES: C[C@@H]1CN(c2nc(-c3c[nH]c4ccccc34)nc3c2CN(S(=O)(=O)C2CC2)C3)C[C@H](C)O1
- IC50 [1]: > 10000 nM

SMILES: C[C@@H]1COCCN1c1nc(-c2c[nH]c3ccccc23)nc2c1CN(C(=O)C(C)(C)C)C2
- IC50 [1]: 25 nM

SMILES: CC(C)S(=O)(=O)N1Cc2nc(-c3c[nH]c4ccccc34)nc(N3CCOC[C@H]3C)c2C1
- Activity (A2780 [2]): Tde
- IC50 (FKBP12A/mTOR): 125 nM
- IC50 (NCI-H23): 2110 nM
- IC50 (CWR22R): 1340 nM
- inhibition (A2780 [3]): Dde
- IC50 (MDA-MB-468): 1420 nM
- inhibition [4]: Dde
- IC50 [5]: 2720 nM
- Activity (A2780 [6]): Dde
- IC50 (Granta-519): 1020 nM
- inhibition [7]: Dde
- IC50 (A2780 [8]): 670 nM
- IC50 [9]: 136 nM
- inhibition [10]: Dde
- IC50 [1]: 7 nM
- IC50 (MDA-MB-436): 950 nM
- IC50 (SW-620): 2150 nM
- IC50 (LoVo): 840 nM
- IC50 [11]: 9440 nM
- IC50 [12]: 2150 nM

SMILES: C[C@@H]1COCCN1c1nc(-c2c[nH]c3ccccc23)nc2c1CN(S(=O)(=O)C1CCCCC1)C2
- IC50 [1]: 20 nM

SMILES: C[C@@H]1COCCN1c1nc(-c2cnc3[nH]ccc3c2)nc2c1CN(S(=O)(=O)C1CC1)C2
- IC50 [1]: 2710 nM

SMILES: O=S(=O)(C1CC1)N1Cc2nc(-c3c[nH]c4ccccc34)nc(N3C4CCC3COC4)c2C1
- IC50 [1]: 1390 nM

SMILES: O=S(=O)(C1CC1)N1Cc2nc(-c3c[nH]c4ccccc34)nc(N3C[C@H]4COC[C@H]4C3)c2C1
- IC50 [1]: > 10000 nM

SMILES: C[C@@H]1COCCN1c1nc(-c2c[nH]c3ccccc23)nc2c1CN(C(=O)[C@H]1CCCO1)C2
- IC50 [1]: 11 nM

SMILES: O=S(=O)(C1CC1)N1Cc2nc(-c3c[nH]c4ccccc34)nc(N3CC4CCC(C3)O4)c2C1
- IC50 [1]: 544 nM

SMILES: C[C@@H]1COCCN1c1nc(-c2c[nH]c3ncccc23)nc2c1CN(S(=O)(=O)C1CC1)C2
- IC50 [1]: 2470 nM

SMILES: C[C@@H]1COCCN1c1nc(-c2cccc3[nH]ccc23)nc2c1CN(S(=O)(=O)C1CC1)C2
- IC50 [1]: 53 nM

Continued, in another order:

- IC50 [1]: 4950 nM
SMILES: C[C@H]1COCCN1c1nc(-c2c[nH]c3ccccc23)nc2c1CN(S(=O)(=O)C1CC1)C2

- IC50 [1]: 10 nM
SMILES: C[C@@H]1COCCN1c1nc(-c2c[nH]c3ccccc23)nc2c1CN(C(=O)C(C)(C)CCl)C2

- IC50 [1]: > 10000 nM
SMILES: C[C@@H]1COCCN1c1nc(-c2cc[nH]n2)nc2c1CN(S(=O)(=O)C1CC1)C2

- IC50 [1]: > 10000 nM
SMILES: O=S(=O)(C1CC1)N1Cc2nc(-c3c[nH]c4ccccc34)nc(N3CC4CC3CO4)c2C1 (centres undefined)

- IC50 [1]: 8360 nM
SMILES: C[C@H](CO)Nc1nc(-c2c[nH]c3ccccc23)nc2c1CN(S(=O)(=O)C1CC1)C2

- IC50 (NCI-H23): 3350 nM
- IC50 (MDA-MB-468): 1820 nM
- IC50 (A2780 [8]): 1190 nM
- IC50 [1]: 6 nM
- IC50 (MDA-MB-436): 1290 nM
- IC50 (SW-620): 3960 nM
- IC50 (LoVo): 2630 nM
SMILES: C[C@@H]1COCCN1c1nc(-c2c[nH]c3ccccc23)nc2c1CN(C(=O)C1CC1)C2
- IC50 (CWR22R): 1450 nM
- IC50 (Granta-519): 1630 nM

- IC50 (NCI-H23): 3480 nM
- IC50 (MDA-MB-468): 1740 nM
- IC50 (A2780 [8]): 1350 nM
- IC50 [1]: 4 nM
- IC50 (MDA-MB-436): 1880 nM
- IC50 (SW-620): 3840 nM
- IC50 (LoVo): 2110 nM
SMILES: C[C@@H]1COCCN1c1nc(-c2c[nH]c3ccccc23)nc2c1CN(S(=O)(=O)C1CC1)C2
- IC50 (CWR22R): 2480 nM
- IC50 (Granta-519): 1860 nM

- IC50 [1]: 18 nM
SMILES: C[C@@H]1COCCN1c1nc(-c2c[nH]c3ccccc23)nc2c1CN(S(=O)(=O)N(C)C)C2
